Reference: patent publication US8859535B2, “Hydroxy substituted isoquinolinone derivatives” (Novartis AG, priority 2011, dated 2014)

Key:
[1] = target: T1, human MDM2 protein (amino acids 2-188) (Homo sapiens, UniProt Q00987); assay: p53-MDM2 TR-FRET assay (p53-MDM2 Assay 1); assay type: binding; conditions: 1.25 nM MDM2-biotinylated, 10 nM Cy5-p53 peptide; read-out: IC50 (μM) of p53-Hdm2 inhibition (TR-FRET) Assay 1
T1 construct: human MDM2 protein (amino acids 2-188); made in house
Description: (§1) Time Resolved Fluorescence Energy Transfer (TR-FRET) Assay
(§2) The inhibition of p53-MDM2 and p53-MDM4 interactions is measured by time resolved fluorescence energy transfer (TR-FRET). Fluorescence energy transfer (or Foerster resonance energy transfer) describes an energy transfer between donor and acceptor fluorescent molecules. For this assay, human MDM2 protein (amino acids 2-188) and human MDM4 protein (amino acids 2-185), tagged with a C-terminal biotin moiety, are used in combination with a Europium labeled streptavidin (Perkin Elmer, Inc., Waltham, Mass., USA) serving as the donor fluorophore. The p53 derived, Cy5 labeled peptide Cy5-TFSDLWKLL (p53 aa18-26) is the energy acceptor. Upon excitation of the donor molecule at 340 nm, binding interaction between MDM2 or MDM4 and the p53 peptide induces energy transfer and enhanced response at the acceptor emission wavelength at 665 nm. Disruption of the formation of the p53-MDM2 or p53-MDM4 complex due to an inhibitor molecule binding to the p53 binding site of MDM2 or MDM4 results in increased donor emission at 620 nm. The ratiometric FRET assay readout is calculated from the raw data of the two distinct fluorescence signals measured in time resolved mode (fluorescence 665 nm/fluorescence 620 nm×1000).
(§3) After addition of 1.25 nM MDM2-biotinylated or 2.5 nM MDM4-biotinylated (internal preparations), and 0.625 nM Europium labeled streptavidin (Perkin Elmer), the solution is pre-incubated for 15 minutes at room temperature, then 10 nM Cy5-p53 peptide (internal preparation) is added before an incubation at room temperature for 15 minutes prior to reading the plate. For measurement of samples, a Victor II microplate reader (Perkin Elmer) is used with the following settings: Excitation 340 nm, Emission Donor 620 nm and Emission Acceptor 665 nm. IC50 values are calculated by curve fitting using XLfit. If not specified, reagents are purchased from Sigma-Aldrich Chemie GmBH, Buchs, Switzerland.
(§4) This assay was used to evaluate compounds displaying inhibition of p53-MDM2 interaction and p53-MDM4 interaction at IC50s of 0.005 to 50 μM (p53-MDM2 Assay 1 and p53-MDM4 Assay 1, respectively). For selected compounds displaying IC50s between […] on MDM2, a slightly modified assay is used with the following adaptations: 0.1 nM MDM2, 0.1 nM Europium labeled streptavidin and Tecan genios Pro is used as a microplate reader for the fluorescence measurements (p53-MDM2 Assay 2).

[2] = target: T2, human MDM4 protein (amino acids 2-185) (Homo sapiens, UniProt O15151); assay: p53-MDM4 TR-FRET assay (p53-MDM4 Assay 1); assay type: binding; conditions: 2.5 nM MDM4-biotinylated, 10 nM Cy5-p53 peptide; read-out: IC50 (μM) of p53-Hdm4 inhibition (TR-FRET) Assay 1
T2 construct: human MDM4 protein (amino acids 2-185); made in house
T2 sequence (O15151 2-185): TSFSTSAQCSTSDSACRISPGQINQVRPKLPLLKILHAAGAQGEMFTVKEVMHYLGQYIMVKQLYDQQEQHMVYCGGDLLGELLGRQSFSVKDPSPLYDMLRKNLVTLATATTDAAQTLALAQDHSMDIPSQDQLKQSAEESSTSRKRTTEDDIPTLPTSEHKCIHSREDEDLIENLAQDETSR
Description: as §1, §2, §3, §4

T1 sequence (Q00987 2-188): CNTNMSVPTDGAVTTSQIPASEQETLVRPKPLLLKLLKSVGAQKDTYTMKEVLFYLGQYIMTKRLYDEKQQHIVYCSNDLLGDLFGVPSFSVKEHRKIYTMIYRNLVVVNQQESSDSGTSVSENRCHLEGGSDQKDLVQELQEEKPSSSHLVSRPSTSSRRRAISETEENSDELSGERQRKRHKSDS

## COc1cc2c(cc1OC(C)C)[C@H](c1ccc(Cl)cc1)N(c1ccc(C(C)(O)c3ccc(NC(C)=O)cc3)cc1)C(=O)C2 (mixture of isomers) [Example 21, N-[4-(1-{4-[(S)-1-(4-Chloro-phenyl)-7-isopropoxy-6-methoxy-3-oxo-3,4-dihydro-1H-isoquinolin-2-yl]-phenyl}-1-hydroxy-ethyl)-phenyl]-acetamide]
[1]
  IC50: 0.0071 µM
[2]
  IC50: 10.4 µM

## COc1cc2c(cc1OC(C)C)[C@H](c1ccc(Cl)cc1)N(c1ccc(C(C)(O)C3CCOCC3)cc1)C(=O)C2 (mixture of isomers) [Example 30, (S)-1-(4-Chloro-phenyl)-2-{4-[1-hydroxy-1-(tetrahydro-pyran-4-yl)-ethyl]-phenyl}-7-isopropoxy-6-methoxy-1,4-dihydro-2H-isoquinolin-3-one]
[1]
  IC50: 0.0037 µM
[2]
  IC50: 4.06 µM

## COc1cc2c(cc1OC(C)C)[C@H](c1ccc(Cl)cc1)N(c1ccc(C(C)(O)C3CCN(C)CC3)cc1)C(=O)C2 (mixture of isomers) [Example 34, (S)-1-(4-Chloro-phenyl)-2-{4-[1-hydroxy-1-(1-methyl-piperidin-4-yl)-ethyl]-phenyl}-7-isopropoxy-6-methoxy-1,4-dihydro-2H-isoquinolin-3-one]
[1]
  IC50: 0.0051 µM
[2]
  IC50: 5.23 µM

## COc1cc2c(cc1OC(C)C)[C@H](c1ccc(Cl)cc1)N(c1ccc(C(C)(O)C3CCOCC3)c(F)c1)C(=O)C2 (mixture of isomers) [Example 35, (S)-1-(4-Chloro-phenyl)-2-{3-fluoro-4-[1-hydroxy-1-(tetrahydro-pyran-4-yl)-ethyl]-phenyl}-7-isopropoxy-6-methoxy-1,4-dihydro-2H-isoquinolin-3-one]
[1]
  IC50: 0.0025 µM
[2]
  IC50: 1.48 µM

## COc1cc2c(cc1OC(C)C)[C@H](c1ccc(Cl)cc1)N(c1ccc(C(C)(O)C34CCC(CC3)O4)cc1)C(=O)C2 (mixture of isomers) [Example 135, (S)-1-(4-Chloro-phenyl)-2-{4-[1-hydroxy-1-(7-oxa-bicyclo[2.2.1]hept-1-yl)-ethyl]-phenyl}-7-isopropoxy-6-methoxy-1,4-dihydro-2H-isoquinolin-3-one]
[1]
  IC50: 0.00815 µM
[2]
  IC50: 7.61 µM

## COc1cc2c(cc1OC(C)C)[C@H](c1ccc(Cl)cc1)N(c1ccc(C(C)(O)C3CC4CCC(C3)S4(=O)=O)cc1)C(=O)C2 (mixture of isomers) [Example 172, (S)-1-(4-Chloro-phenyl)-2-{4-[1-(8,8-dioxo-8-thia-bicyclo[3.2.1]oct-3-yl)-1-hydroxy-ethyl]-phenyl}-7-isopropoxy-6-methoxy-1,4-dihydro-2H-isoquinolin-3-one]
[1]
  IC50: 0.0079 µM
[2]
  IC50: 8.05 µM

## COc1cc2c(cc1OC(C)C)[C@H](c1ccc(Cl)cc1)N(c1ccc([C@@](C)(O)C3CCOCC3)cc1)C(=O)C2 (single isomer, unassigned) [Example 32]
[1]
  IC50: 0.0023 µM
[2]
  IC50: 2.19 µM

## COc1cc2c(cc1OC(C)C)[C@H](c1ccc(Cl)cc1)N(c1ccc([C@](C)(O)C3CCOCC3)cc1)C(=O)C2 (single isomer, unassigned) [Example 33]
[1]
  IC50: 0.216 µM
[2]
  IC50: 67.8 µM

## COc1cc2c(cc1OC(C)C)[C@H](c1ccc(Cl)cc1)N(c1ccc([C@](C)(O)C3CCC(F)(F)CC3)cc1)C(=O)C2 (single isomer, unassigned) [Example 46]
[1]
  IC50: 0.422 µM

## COc1cc2c(cc1OC(C)C)[C@H](c1ccc(Cl)cc1)N(c1ccc([C@](C)(O)C34CC5CC(CC(C5)C3)C4)cc1)C(=O)C2 (single isomer, unassigned) [Example 143]
[1]
  IC50: 2.31 µM

## CCC(C)(O)c1ccc(N2C(=O)Cc3cc(OC)c(OC(C)C)cc3[C@@H]2c2ccc(Cl)cc2)cn1 (stereo partly drawn) [Example 9, (S)-1-(4-Chloro-phenyl)-2-[6-(1-hydroxy-1-methyl-propyl)-pyridin-3-yl]-7-isopropoxy-6-methoxy-1,4-dihydro-2H-isoquinolin-3-one]
[1]
  IC50: 0.459 µM

## CCC(C)(O)c1ccc(N2C(=O)Cc3cc(OC)c(OC(C)C)cc3[C@@H]2c2ccc(Cl)cc2)nc1 (stereo partly drawn) [Example 10, (S)-1-(4-Chloro-phenyl)-2-[5-(1-hydroxy-1-methyl-propyl)-pyridin-2-yl]-7-isopropoxy-6-methoxy-1,4-dihydro-2H-isoquinolin-3-one]
[1]
  IC50: 0.247 µM

## COc1cc2c(cc1OC(C)C)[C@H](c1ccc(Cl)cc1)N(c1ccc(C(C)(O)c3cccnc3)cc1F)C(=O)C2 (stereo partly drawn) [Example 20, (S)-1-(4-Chloro-phenyl)-2-[2-fluoro-4-(1-hydroxy-1-pyridin-3-yl-ethyl)-phenyl]-7-isopropoxy-6-methoxy-1,4-dihydro-2H-isoquinolin-3-one]
[1]
  IC50: 0.0723 µM

## COc1cc2c(cc1OC(C)C)[C@H](c1ccc(Cl)cc1)N(c1ccc(C(C)(O)CCO)cc1)C(=O)C2 (stereo partly drawn) [Example 41, (S)-1-(4-Chloro-phenyl)-2-[4-(1,3-dihydroxy-1-methyl-propyl)-phenyl]-7-isopropoxy-6-methoxy-1,4-dihydro-2H-isoquinolin-3-one]
[1]
  IC50: 0.247 µM

## COc1ccc(C(O)(CO)c2ccc(N3C(=O)Cc4cc(OC)c(OC(C)C)cc4[C@@H]3c3ccc(Cl)cc3)cc2)cc1 (stereo partly drawn) [Example 44, (S)-1-(4-Chloro-phenyl)-2-{4-[1,2-dihydroxy-1-(4-methoxy-phenyl)-ethyl]-phenyl}-7-isopropoxy-6-methoxy-1,4-dihydro-2H-isoquinolin-3-one]
[1]
  IC50: 0.0982 µM

## COc1cc2c(cc1OC(C)C)[C@H](c1ccc(Cl)cc1)N(c1ccc(C3(O)CNC3)cc1)C(=O)C2 [Example 56, (S)-1-(4-Chloro-phenyl)-2-[4-(3-hydroxy-azetidin-3-yl)-phenyl]-7-isopropoxy-6-methoxy-1,4-dihydro-2H-isoquinolin-3-one]
[1]
  IC50: 0.811 µM

## COc1cc2c(cc1OC(C)C)[C@H](c1ccc(Cl)cc1)N(c1ccc(C3(O)CN(C(C)=O)C3)cc1)C(=O)C2 [Example 57, (S)-2-[4-(1-Acetyl-3-hydroxy-azetidin-3-yl)-phenyl]-1-(4-chloro-phenyl)-7-isopropoxy-6-methoxy-1,4-dihydro-2H-isoquinolin-3-one]
[1]
  IC50: 0.262 µM

## COC(=O)N1CC(O)(c2ccc(N3C(=O)Cc4cc(OC)c(OC(C)C)cc4[C@@H]3c3ccc(Cl)cc3)cc2)C1 [Example 58, 3-{4-[(S)-1-(4-Chloro-phenyl)-7-isopropoxy-6-methoxy-3-oxo-3,4-dihydro-1H-isoquinolin-2-yl]-phenyl}-3-hydroxy-azetidine-1-carboxylic acid methyl ester]
[1]
  IC50: 0.205 µM

## COc1cc2c(cc1OC(C)C)[C@H](c1ccc(Cl)cc1)N(c1ccc(C3(O)CN(C(=O)N(C)C)C3)cc1)C(=O)C2 [Example 59, 3-{4-[(S)-1-(4-Chloro-phenyl)-7-isopropoxy-6-methoxy-3-oxo-3,4-dihydro-1H-isoquinolin-2-yl]-phenyl}-3-hydroxy-azetidine-1-carboxylic acid dimethylamide]
[1]
  IC50: 0.167 µM

## COc1cc2c(cc1OC(C)C)[C@H](c1ccc(Cl)cc1)N(c1ccc(C3(O)CN(C(=O)C4CC4)C3)cc1)C(=O)C2 [Example 61, (S)-1-(4-Chloro-phenyl)-2-[4-(1-cyclopropanecarbonyl-3-hydroxy-azetidin-3-yl)-phenyl]-7-isopropoxy-6-methoxy-1,4-dihydro-2H-isoquinolin-3-one]
[1]
  IC50: 0.156 µM

## COc1cc2c(cc1OC(C)C)[C@H](c1ccc(Cl)cc1)N(c1ccc(C(C)(O)C34CC5CC(CC(C5)C3)C4)cc1)C(=O)C2 (stereo partly drawn) [Example 141, (S)-2-[4-(1-Adamantan-1-yl-1-hydroxy-ethyl)-phenyl]-1-(4-chloro-phenyl)-7-isopropoxy-6-methoxy-1,4-dihydro-2H-isoquinolin-3-one]
[1]
  IC50: 0.0251 µM

## COc1cc2c(cc1OC(C)C)[C@H](c1ccc(Cl)cc1)N(c1ccc(C(C)(O)C3C4CC5CC(C4)CC3C5)cc1)C(=O)C2 (stereo partly drawn) [Example 144, (S)-2-[4-(1-Adamantan-2-yl-1-hydroxy-ethyl)-phenyl]-1-(4-chloro-phenyl)-7-isopropoxy-6-methoxy-1,4-dihydro-2H-isoquinolin-3-one]
[1]
  IC50: 0.123 µM
